# Values quoted from earlier work in patent US7271167B2, “Compounds, compositions, and methods” (Cytokinetics, Inc., priority 2002, dated 2007).
# Test system: A549 cells
# Conditions: data provided by National Cancer Institute, Developmental Therapeutic Program
row,Compound,GI50 [nM]
1,O=c1[nH]cc(F)c(=O)[nH]1 [5-fluorouracil],1000
2,COc1cccc2c1C(=O)c1c(O)c3c(c(O)c1C2=O)C[C@@](O)(C(=O)CO)C[C@@H]3O[C@H]1C[C@H](N)[C@H](O)[C@H](C)O1 [doxorubicin],63
3,NC(=O)NO [hydroxyurea],500000
4,CC(=O)O[C@H]1C(=O)[C@@]2(C)[C@H]([C@H](OC(=O)c3ccccc3)[C@]3(O)C[C@H](OC(=O)[C@H](O)[C@@H](NC(=O)c4ccccc4)c4ccccc4)C(C)=C1C3(C)C)[C@]1(OC(C)=O)CO[C@@H]1C[C@@H]2O [paclitaxel],4
